Results: patent US20260250320A1, “LIPIDATED PEPTIDE INHIBITORS OF INTERLEUKIN-23 RECEPTOR” (Janssen Pharmaceutica NV, priority 2023, published 2026)
pIC50: −log10 of the molar value. *1 amine or outer side, *2 acyl side, *3 side chain or, on linkers, in order; H or OH if unused. Where a SMILES comes first, the peptide text is derived from it. Bridges are numbered along the chain shown (N, C = ends). Roman numbers before positions name the chains, in order. Side-chain parts run from the residue outwards. [ ]: non-standard residue; d: D form. The star is where a group is joined. ξ: configuration not given here. X19 = CC(C)(S[*:2])[C@H](N[*:3])C(=O)C[C@@H](Cc1ccc(OCCN)cc1)C(=O)[*:1]; Me3N+(CH2)2O(CH2)2O(CH2)2CO = C[N+](C)(C)CCOCCOCCC(=O)*; PEG12 = NCCOCCOCCOCCOCCOCCOCCOCCOCCOCCOCCOCCOCCC(=O)O; CH2CH2OCH2CH2OCH2CH2NMe3+ = C[N+](C)(C)CCOCCOCC*; NH(CH2CH2O)2CH2CH2NMe3+ = C[N+](C)(C)CCOCCOCCN*; Trp(7-Me) = Cc1cccc2c(C[C@H](N)C(=O)O)c[nH]c12; X37 = Cc1cccc2c1CC=C2C[C@H](N[*:1])C(=O)[*:2]; C18 diacid = O=C(O)CCCCCCCCCCCCCCCCC(=O)*; γGlu = O=C(O)[C@H](CCC(=O)[*:2])N[*:1]; 2Nal = N[C@@H](Cc1ccc2ccccc2c1)C(=O)O; AEF = NCCOc1ccc(C[C@H](N)C(=O)O)cc1; X2 = C[N+](C)(C)C[C@@H](CC(=O)O)N*; 3Pal = N[C@@H](Cc1cccnc1)C(=O)O; Lys(Me) = CNCCCC[C@H](N)C(=O)O; Pen = CC(C)(S)[C@H](N)C(=O)O; Suc = O=C(CCC(=O)[*:2])[*:1]; Thp = NC1(C(=O)O)CCOCC1; X1 = C[N+](C)(C)CCCCC*; AEEA = NCCOCCOCC(=O)O; ξK = NCCCCC(N)C(=O)O; Sar = CNCC(=O)O

Tests used:
IL-23R = biological target: T1, IL-23R (Homo sapiens, UniProt Q5VWK5); assay: IL23R Reporter Assay; format: cell-based; details: HEK293 cells containing IL-23R, IL-12Rβ1 and STAT-inducible firefly luciferase reporter; 10 ng/mL IL-23 (EC90); 5 h
T1 construct: HEK293 cells containing IL-23R, IL-12Rβ1 and a firefly luciferase reporter gene driven by a STAT-inducible promoter (Promega); host or cells: HEK293
T1 sequence (Q5VWK5 24-629): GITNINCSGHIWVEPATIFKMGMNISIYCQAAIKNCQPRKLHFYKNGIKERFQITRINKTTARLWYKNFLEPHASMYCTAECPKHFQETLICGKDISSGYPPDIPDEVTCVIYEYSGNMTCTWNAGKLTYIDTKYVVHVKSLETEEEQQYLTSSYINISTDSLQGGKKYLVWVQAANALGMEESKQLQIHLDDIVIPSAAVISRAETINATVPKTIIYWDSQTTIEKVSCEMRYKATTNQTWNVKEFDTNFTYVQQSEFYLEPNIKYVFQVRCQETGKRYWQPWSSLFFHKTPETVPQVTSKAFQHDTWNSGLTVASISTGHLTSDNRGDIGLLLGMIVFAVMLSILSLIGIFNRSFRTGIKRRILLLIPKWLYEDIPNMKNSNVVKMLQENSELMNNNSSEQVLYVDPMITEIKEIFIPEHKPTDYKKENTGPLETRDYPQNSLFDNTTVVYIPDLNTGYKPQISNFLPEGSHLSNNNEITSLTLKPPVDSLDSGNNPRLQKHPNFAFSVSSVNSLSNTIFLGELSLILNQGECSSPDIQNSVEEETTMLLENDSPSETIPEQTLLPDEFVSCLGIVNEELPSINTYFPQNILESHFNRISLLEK
Summary of the method: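 IC50 values were fitted with a 4-parameter Hill equation to luciferase signal, scaled between IL-23-only wells (0% inhibition) and 30 μM reference inhibitor (100%). The readout was a STAT-inducible reporter in IL-23R/IL-12Rβ1 HEK293 cells, stimulated with added 10 ng/mL IL-23 (EC90) for 5 h at 37° C and developed with BioGlo.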

[1] = system: IL-23-stimulated phosphorylated STAT3 in peripheral blood mononuclear cells (PBMCs); assay: PBMC pSTAT3 Assay; format: cell-based; details: PBMCs from healthy donors; 30 min preincubation with peptide; IL-23 5 ng/mL for 30 min; phospho-STAT3 by MSD
Summary of the method: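 Phospho-STAT3 quantified by Meso Scale assay in lysates of PBMCs exposed to IL-23 (5 ng/mL, 30 min, 37 °C) after 30 min peptide pretreatment. Cells were cryopreserved donor PBMCs activated 4 days with anti-CD3 plus IL-1β (100 ng/mL) and starved ~4 h; IC50 reported.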

| Structure (SMILES) | pIC50 (IL-23R) | pIC50 [1] |
| --- | --- | --- |
| CC(=O)NCCCC[C@@H]1NC(=O)[C@H](Cc2c[nH]c3c(C)cccc23)NC(=O)[C@H]([C@@H](C)O)NC(=O)[C@H](CCCCNC(=O)COCCOCCNC(=O)COCCOCCNC(=O)CC[C@H](NC(=O)CCCCCCCCCCCCCCCCC(=O)O)C(=O)O)NC(=O)[C@@H](NC(=O)[C@@H](CCCNC(=N)N)NC(C)=O)C(C)(C)SSC(C)(C)[C@@H](C(=O)N[C@@H](Cc2ccc(OCCN)cc2)C(=O)N[C@@H](Cc2ccc3ccccc3c2)C(=O)NC2(C(=O)N[C@@H](CCC(=O)O)C(=O)N[C@@H](CC(N)=O)C(=O)N[C@@H](Cc3cccnc3)C(=O)N(C)CC(=O)NCCOCCOCC[N+](C)(C)C)CCOCC2)NC1=O [compound 66, MeCO-r-Pen(3)-K(PEG2PEG2gEC18OH)-T-7MeW-K(Ac)-Pen(3)-AEF-2Nal-THP-E-N-3Pya-Sar-CONH(PEG3a)] (Ac-[dR][Pen]K([AEEA-AEEA-γGlu-C18 diacid])T[Trp(7-Me)]K(Ac)[Pen][AEF][2Nal][Thp]EN[3Pal][Sar]-{NH(CH2CH2O)2CH2CH2NMe3+}; disulfide 2-7) | ≤ 6.30 | 8.30 to 9.30 |
| CC(=O)N(C)CCCC[C@H](NC(=O)C1(NC(=O)[C@H](Cc2ccc3ccccc3c2)NC(=O)[C@H](Cc2ccc(OCCCCC[N+](C)(C)C)cc2)NC(=O)[C@H]2NC(=O)[C@H](CCCCNC(=O)CCOCCOCCOCCOCCOCCOCCOCCOCCOCCOCCOCCOCCNC(=O)CC[C@H](NC(=O)CCCCCCCCCCCCCCCCC(=O)O)C(=O)O)NC(=O)[C@H](CC3=CCc4c(C)cccc43)NC(=O)[C@H]([C@@H](C)O)NC(=O)[C@H](CC(=O)N(C)C)NC(=O)[C@@H](NC(=O)CCOCCOCC[N+](C)(C)C)C(C)(C)SSC2(C)C)CCOCC1)C(=O)N[C@@H](CC(N)=O)C(=O)N[C@@H](Cc1cccnc1)C(=O)N(C)CC(=O)N(C)C [compound 124, cPEG3aCO-Pen(3)-N(N(Me)2)-T-7MeW-K(PEG12gEC18OH)-Pen(3)-TMAPF-2Nal-THP-K(NMeAc)-N-3Pya-Sar-CON(Me)2] ({Me3N+(CH2)2O(CH2)2O(CH2)2CO}-[Pen]D(NMe2)T[X37]K([PEG12-γGlu-C18 diacid])[Pen]Y(X1)[2Nal][Thp][Lys(Me)](Ac)N[3Pal][Sar]-NMe2; disulfide 1-6) | > 7.30 | > 9.30 |
| CC(=O)N(C)CCCC[C@@H]1NC(=O)[C@H](Cc2c[nH]c3c(C)cccc23)NC(=O)[C@H]([C@@H](C)O)NC(=O)[C@H](CC(=O)N(C)C)NC(=O)[C@@H](NC(=O)CCOCCOCCOCCOCCOCCOCCOCCOCCOCCOCCOCCOCCNC(=O)CC[C@H](NC(=O)CCCCCCCCCCCCCCCCC(=O)O)C(=O)O)C(C)(C)SSC(C)(C)[C@@H](C(=O)N[C@@H](Cc2ccc(OCCOCCOCC[N+](C)(C)C)cc2)C(=O)N[C@@H](Cc2ccc3ccccc3c2)C(=O)NC2(C(=O)N[C@@H](CCCCN(C)C(C)=O)C(=O)N[C@@H](CC(N)=O)C(=O)N[C@@H](Cc3cccnc3)C(=O)N(C)CC(=O)N(C)C)CCOCC2)NC1=O [compound 108, HOC18gEPEG12CO-Pen(3)-N(N(Me)2)-T-7MeW-K(NMeAc)-Pen(3)-APEG3F-2Nal-THP-K(NMeAc)-N-3Pya-Sar-CON(Me)2] ({C18 diacid-γGlu-PEG12}-[Pen]D(NMe2)T[Trp(7-Me)][Lys(Me)](Ac)[Pen]Y(CH2CH2OCH2CH2OCH2CH2NMe3+)[2Nal][Thp][Lys(Me)](Ac)N[3Pal][Sar]-NMe2; disulfide 1-6) | > 7.30 | > 9.30 |
| CC(=O)NCCCC[C@@H]1NC(=O)[C@H](Cc2c[nH]c3c(C)cccc23)NC(=O)[C@H]([C@@H](C)O)NC(=O)[C@H](CCCCNC(=O)COCCOCCNC(=O)COCCOCCNC(=O)CC[C@H](NC(=O)CCCCCCCCCCCCCCCCC(=O)O)C(=O)O)NC(=O)[C@@H](NC(=O)[C@@H](CCCNC(=N)N)NC(=O)CCC(=O)N[C@H](CC(=O)O)C[N+](C)(C)C)C(C)(C)SSC(C)(C)[C@@H](C(=O)N[C@@H](Cc2ccc(OCCN)cc2)C(=O)N[C@@H](Cc2ccc3ccccc3c2)C(=O)NC2(C(=O)N[C@@H](CCC(=O)O)C(=O)N[C@@H](CC(N)=O)C(=O)N[C@@H](Cc3cccnc3)C(=O)N(C)CC(N)=O)CCOCC2)NC1=O [compound 18, succiniccarn-r-Pen(3)-K(PEG2PEG2gEC18OH)-T-7MeW-K(Ac)-Pen(3)-AEF-2Nal-THP-E-N-3Pya-Sar-CONH2] ({X2-Suc}-[dR][Pen]K([AEEA-AEEA-γGlu-C18 diacid])T[Trp(7-Me)]K(Ac)[Pen][AEF][2Nal][Thp]EN[3Pal][Sar]-NH2; disulfide 2-7) | 6.30 to 7.30 | > 9.30 |
| CC(=O)NCCCC[C@@H]1NC(=O)[C@H](Cc2c[nH]c3c(C)cccc23)NC(=O)[C@H]([C@@H](C)O)NC(=O)[C@H](CC(N)=O)NC(=O)[C@@H](NC(C)=O)C(C)(C)SSC(C)(C)[C@@H](C(=O)C[C@@H](Cc2ccc(OCCN)cc2)C(=O)N[C@@H](Cc2ccc3ccccc3c2)C(=O)NC2(C(=O)N[C@@H](CCCCNC(=O)COCCOCCNC(=O)COCCOCCNC(=O)CC[C@H](NC(=O)CCCCCCCCCCCCCCCCC(=O)O)C(=O)O)C(=O)N[C@@H](CC(N)=O)C(=O)N[C@@H](Cc3cccnc3)C(=O)N(C)CC(=O)NCCOCCOCC[N+](C)(C)C)CCOCC2)NC1=O [compound 64, MeCO-Pen(3)-N-T-7MeW-K(Ac)-Pen(3)-AEF-2Nal-THP-K(PEG2PEG2gEC18OH)-N-3Pya-Sar-CONH(PEG3a)] (I: [2Nal][Thp]K([AEEA-AEEA-γGlu-C18 diacid])N[3Pal][Sar]-{NH(CH2CH2O)2CH2CH2NMe3+} / II: Ac-[Pen]NT[Trp(7-Me)]K(Ac); linker I:N-II:1-II:C via X19) | ≤ 6.30 | 8.30 to 9.30 |
| CC(=O)NCCCCC1NC(=O)[C@H](Cc2c[nH]c3c(C)cccc23)NC(=O)[C@H]([C@@H](C)O)NC(=O)[C@H](CC(N)=O)NC(=O)[C@@H](NC(=O)[C@H](CCCCNC(=O)COCCOCCNC(=O)COCCOCCNC(=O)CC[C@H](NC(=O)CCCCCCCCCCCCCCCCC(=O)O)C(=O)O)NC(C)=O)C(C)(C)SSC(C)(C)[C@@H](C(=O)N[C@@H](Cc2ccc(OCCN)cc2)C(=O)N[C@@H](Cc2ccc3ccccc3c2)C(=O)NC2(C(=O)N[C@@H](CCCCNC(C)=O)C(=O)N[C@@H](CC(N)=O)C(=O)N[C@@H](Cc3cccnc3)C(=O)N(C)CC(N)=O)CCOCC2)NC1=O (stereo partly drawn) [compound 39, MeCO-K(PEG2PEG2gEC18OH)-Pen(3)-N-T-7MeW-K(Ac)-Pen(3)-AEF-2Nal-THP-K(Ac)-N-3Pya-Sar-CONH2] (Ac-K([AEEA-AEEA-γGlu-C18 diacid])[Pen]NT[Trp(7-Me)][ξK](Ac)[Pen][AEF][2Nal][Thp]K(Ac)N[3Pal][Sar]-NH2; disulfide 2-7) | > 7.30 | > 9.30 |
| Cc1cccc2c(C[C@@H]3NC(=O)[C@H]([C@@H](C)O)NC(=O)[C@H](CC(N)=O)NC(=O)[C@@H](NC(=O)[C@@H](CCCNC(=N)N)NC(=O)CCC(=O)N[C@H](CC(=O)O)C[N+](C)(C)C)C(C)(C)SSC(C)(C)[C@@H](C(=O)N[C@@H](Cc4ccc(OCCN)cc4)C(=O)N[C@@H](Cc4ccc5ccccc5c4)C(=O)NC4(C(=O)N[C@@H](CCC(=O)O)C(=O)N[C@@H](CC(N)=O)C(=O)N[C@@H](Cc5cccnc5)C(=O)N(C)CC(N)=O)CCOCC4)NC(=O)[C@H](CCCCNC(=O)COCCOCCNC(=O)COCCOCCNC(=O)CC[C@H](NC(=O)CCCCCCCCCCCCCCCCC(=O)O)C(=O)O)NC3=O)c[nH]c12 [compound 19, MeCO-r-Pen(3)-N-T-7MeW-K(PEG2PEG2gEC18OH)-Pen(3)-AEF-2Nal-THP-E-N-3Pya-NMeK(d)-CONH2] ({X2-Suc}-[dR][Pen]NT[Trp(7-Me)]K([AEEA-AEEA-γGlu-C18 diacid])[Pen][AEF][2Nal][Thp]EN[3Pal][Sar]-NH2; disulfide 2-7) | 6.30 to 7.30 | > 9.30 |
